PubChem BioAssay AID2060899 (Molecular Pharmacology Branch, DTP, NCI, 2025)

Tested on: 565726-208-R1-J5-PDC complex spheroids, growth inhibition
Test: Anticancer human tumor 565726-208-R1-J5-PDC patient-derived pancreatic adenocarcinoma cell line growth inhibition [RAS]
Details: for IC50: curve of first compound; for viability, T/C: stronger effect = lower value
Text: RAS pathway inhibitors in Combinations in Complex Spheroids
A high-throughput screen of multi-cell type tumor spheroids was designed to identify active combinations of RAS pathway inhibitors and targeted small molecules. Complex spheroids include a stromal component modeled by human endothelial cells (HUVEC) and fibroblasts modeled by human mesenchymal stem cells (MSCs). The concentration ranges selected for each drug and investigational agent were based upon clinically achievable concentrations if the clinical Cmax of the agent was known.
Compounds. The drugs and investigational agents: abemaciclib (NSC768073), cobimetinib (NSC768068), divarasib (GDC6063, NSC841802), docetaxel (NSC628503), GDC-1971 (RLY-1971, NSC841576), gemcitabine (NSC613327), inavolisib (NSC800729), ipatasertib (NSC767898), KB-0742 (NSC834161), MRTX-1133 (NSC836407), osimertinib (NSC779217), RMC-4630 (NSC839698), RMC-6236 (NSC851965), RMC-6291 (NSC852671), Ro-3306 (NSC812927), sapanisertib (NSC764658), SN-38 (NSC673596), staurosporine (NSC755774), SY5609 (NSC837396), and tovorafenib (DAY101, NSC766906), were obtained from the National Cancer Institute (NCI) Developmental Therapeutics Program Chemical Repository. The FDA-approved anticancer drug set is available from the NCI Developmental Therapeutics Program. […] The stock solutions were prepared in dimethyl sulfoxide (DMSO, Sigma-Aldrich, St. Louis, MO, cat. D2650) at 800-fold the tested concentration and stored at -70 degrees C prior to their use. All drugs and investigational agents were tested over a range starting from a high concentration at or near the clinical Cmax and decreasing in half-log increments. If the clinical Cmax for an agent had not been determined, the highest concentration tested was 10 microM.
Cell Culture. All cells were maintained in an incubator at 37 degrees C and 5% CO2 with 95% humidity. The PDC lines were cultured according to standard operating procedures established by the NCI PDMR. All PDCs were thawed and cultured in Matrigel-coated flasks prepared with a working solution of 1X Ham's F-12 nutrient mix, without supplementation (Invitrogen, Waltham, MA, cat. 11765054), 100 U/mL penicillin-streptomycin (Invitrogen, cat. 15140122), and 2.5% Matrigel (Corning Inc., Corning, NY, cat. 354248) for the first three passages. The 362531-283-R-J2-PDC and 782815-120-R-J1-PDC lines were cultured in 6C/Colon 1B media, which includes advanced DMEM/F-12 (Thermo Fisher Scientific, cat. 12634028), 10 mM HEPES (Thermo Fisher Scientific, cat. 15630080), 1X GlutaMAX supplement (Thermo Fisher Scientific, cat. 35050061), 0.1 mg/mL primocin (InvivoGen, San Diego, CA, cat. ant-pm-2), 10% defined fetal bovine serum, heat inactivated (HyClone Laboratories Inc., Logan, UT, cat. SH30070.03HI), 50% L-WRN conditioned media (ATCC, cat. CRL-3276), 1.25 mM N-Acetyl-L-cysteine (Sigma-Aldrich, cat. A9165), 10 mM nicotinamide (Sigma-Aldrich, cat. N0636), 1X B-27 supplement (Thermo Fisher Scientific, cat. 17504044), 1X N-2 supplement (Thermo Fisher Scientific, cat. 17502048), 50 ng/mL human EGF (Thermo Fisher Scientific, cat. PHG0311), and 10 microM Y-27632 dihydrochloride (Tocris Bioscience, cat. 1254). The K12877-001-R-J1-PDC line was cultured in 6I media, which includes all 6C/Colon 1B media plus 10 ng/mL human FGF-10 (PeproTech, cat. 100-26), 1 ng/mL human FGF-2 (PeproTech, cat. 100-18B), 1 µM prostaglandin E2 (Tocris Bioscience, cat. 2296), […] hydrocortisone (Sigma-Aldrich, cat. H4001), and […] bovine insulin (Sigma-Aldrich, cat. I6634). The K86415-001-R-J1-PDC line was cultured in 6D media, which includes all 6C/Colon 1B media components minus the L-WRN conditioned media. The 485176-168-R4-J1-PDC was cultured in PANC media, which includes all 6C/Colon 1B media plus 100 ng/mL human FGF-10 (PeproTech, cat. 100-26), 500 nM SB-431542 (Selleckchem, cat. S1067), and 10 nM gastrin (Tocris Bioscience, cat. 3006). […]
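Also: spheroids exposed to compounds for seven days before readout.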
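For viability, T/C in this document: 100% = DMSO vehicle control viability.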

SMILES: Cc1nc(N2CCC3(CC2)COC(C)C3N)c(CO)nc1Sc1ccnc(N)c1Cl (configuration not stated) + C=CC(=O)N1CCN(c2nc(OCC3CCCN3C)nc3c(F)c(-c4nc(N)cc(C)c4C(F)(F)F)c(Cl)cc23)C(C)C1
- IC50 (second compound 0.00316 µM): > 10 µM
- IC50 (second compound 0.01 µM): > 10 µM
- IC50 (second compound 0.0316 µM): > 10 µM
- IC50 (second compound 0.1 µM): > 10 µM
- IC50 (second compound 0.316 µM): > 10 µM
- IC50 (second compound 1 µM): > 10 µM
- viability, T/C (second compound 0.00316 µM, first compound 0.0316 µM): 115%
- viability, T/C (second compound 0.00316 µM, first compound 0.1 µM): 142%
- viability, T/C (second compound 0.00316 µM, first compound 0.316 µM): 71%
- viability, T/C (second compound 0.00316 µM, first compound 1 µM): 86.8%
- viability, T/C (second compound 0.00316 µM, first compound 3.16 µM): 117%
- viability, T/C (second compound 0.00316 µM, first compound 10 µM): 143%
- viability, T/C (second compound 0.01 µM, first compound 0.0316 µM): 154%
- viability, T/C (second compound 0.01 µM, first compound 0.1 µM): 134%
- viability, T/C (second compound 0.01 µM, first compound 0.316 µM): 77.8%
- viability, T/C (second compound 0.01 µM, first compound 1 µM): 87.9%
- viability, T/C (second compound 0.01 µM, first compound 3.16 µM): 121%
- viability, T/C (second compound 0.01 µM, first compound 10 µM): 148%
- viability, T/C (second compound 0.0316 µM, first compound 0.0316 µM): 149%
- viability, T/C (second compound 0.0316 µM, first compound 0.1 µM): 173%
- viability, T/C (second compound 0.0316 µM, first compound 0.316 µM): 77.3%
- viability, T/C (second compound 0.0316 µM, first compound 1 µM): 90.5%
- viability, T/C (second compound 0.0316 µM, first compound 3.16 µM): 126%
- viability, T/C (second compound 0.0316 µM, first compound 10 µM): 139%
- viability, T/C (second compound 0.1 µM, first compound 0.0316 µM): 162%
- viability, T/C (second compound 0.1 µM, first compound 0.1 µM): 147%
- viability, T/C (second compound 0.1 µM, first compound 0.316 µM): 80.6%
- viability, T/C (second compound 0.1 µM, first compound 1 µM): 74.2%
- viability, T/C (second compound 0.1 µM, first compound 3.16 µM): 138%
- viability, T/C (second compound 0.1 µM, first compound 10 µM): 126%
- viability, T/C (second compound 0.316 µM, first compound 0.0316 µM): 180%
- viability, T/C (second compound 0.316 µM, first compound 0.1 µM): 136%
- viability, T/C (second compound 0.316 µM, first compound 0.316 µM): 78.5%
- viability, T/C (second compound 0.316 µM, first compound 1 µM): 76.7%
- viability, T/C (second compound 0.316 µM, first compound 3.16 µM): 106%
- viability, T/C (second compound 0.316 µM, first compound 10 µM): 140%
- viability, T/C (second compound 1 µM, first compound 0.0316 µM): 167%
- viability, T/C (second compound 1 µM, first compound 0.1 µM): 135%
- viability, T/C (second compound 1 µM, first compound 0.316 µM): 78.3%
- viability, T/C (second compound 1 µM, first compound 1 µM): 83.4%
- viability, T/C (second compound 1 µM, first compound 3.16 µM): 111%
- viability, T/C (second compound 1 µM, first compound 10 µM): 133%
